The results in this text go back to US12268694B2, “Combination pharmaceutical agents as RSV inhibitors” (Enanta Pharmaceuticals, Inc., priority 2017, dated 2025).

Series [1] can be described thus: Cytotoxicity in parallel to the RSV-A assay (no virus), ATPlite readout. To be noted: human, HEp-2 cells (uninfected). The format is cell-based, human. The procedure, abridged:
(§1)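 HEp-2 cells at 8,000/well in DMEM with 10% heat-inactivated FBS received 2-fold serial compound dilutions in duplicate and growth media in place of virus. After 5 days cell viability was read as ATP content by ATPlite luminescence to give CC50.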

Series [2] relates to genotype A, "Long" strain RSV. In words: RSV-A assay: CPE protection in HEp-2 cells, ATPlite readout. The format is cell-based, human respiratory syncytial virus. To be noted: human respiratory syncytial virus, HEp-2, read-out: Human RSV-A (“Long” strain) EC50. Put shortly: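 EC50 derives from ATPlite luminescence after 5-day culture of RSV Long-infected (MOI 0.1) HEp-2 cells, seeded 8,000/well, exposed to duplicate 2-fold compound series. CC50 comes from an identical plate receiving medium instead of virus.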
(In ATP-based viability assays light output follows the ATP content of the culture.)

In series [3] the test system is RSV genotype B, strain 9320. Put plainly: RSV-B assay: A549 cells infected with RSV-B, qPCR or ATPlite readout. It is filed as cell-based. To be noted: human respiratory syncytial virus, A549, 144 h, read-out: Human RSV-B EC50. The text has this:
HEp-2 cells, (originally derived from tumors grown in irradiated-cortisonised weanling rats that had been injected with epidermoid carcinoma tissue from a person's larynx, but later found to be indistinguishable from HeLa cells by PCR DNA analysis), were used for the culturing of genotype B, strain 9320. Flasks were inoculated with RSV-B and viral stocks were collected once cytopathic effect (CPE) was greater than […]. Viral stocks in 25% sucrose media were snap frozen using liquid nitrogen to increase viral stability. Viral stock titers were quantified by tissue culture infectious dose 50% (TCID50) using 8,000 cells per well and 5-fold viral dilutions across a 96-well plate, cultured for 4 days. Viral stock titers were also quantified by a plaque forming unit assay, as described elsewhere.
The assay is run as follows: A549 cells (originally derived through explant culture from a person's carcinomatous lung tissue) are seeded into the inner 60 wells of a 96-well plate at 3,000 cells per well in a volume of 50 μL using A549 growth media (F-12K Media, 1% Penn/Strep, 1% nonessential amino acids, 10% heat-inactivated FBS). 2-fold serial dilutions of control and test compounds are added to the wells in duplicate in a total volume of 25 μL. Viral stock is then added to the wells at a multiplicity of infection (MOI) of 0.5 in a volume of 25 μL, bringing the total volume of each well to 100 μL. The MOI is calculated using the PFU/mL, or TCID50 if unavailable. Each 96-well plate has a control column of 6 wells with cells and virus but no compound (negative control, max CPE), a column with cells but no compound or virus (positive control, minimum CPE), and a column with no cells or virus or compound (background plate/reagent control). The control wells with cells but no virus are given an additional 25 μL of growth media containing an equal quantity of sucrose as those wells receiving the viral stock in order to keep consistent in media and volume conditions. The outer wells of the plate are filled with 125 μL of moat media (DMEM, 1% Penn/Strep) to act as a thermal and evaporative moat around the test wells. 6 days post infection, the plates are read using qPCR or ATP lite (50 μL added per well), which quantifies the amount of ATP (a measure of cell health) present in each well. Assay plates treated with APTlite are read using the Envision luminometer. […] EC50 ranges are as follows: A <0.4 μM; B 0.4-0.8 μM; C >0.8 μM.
In general terms: Real-time PCR tracks product formation cycle by cycle.

The test system of series [4] is HEp-2 cells. In words: Cytotoxicity in parallel to the RSV-A assay (no virus), ATPlite readout. It is filed as cell-based, human. Put shortly: as §1

A value given as a limit tells only on which side of the number the result lay.

Usually CC50 stands for the concentration giving 50% cytotoxicity. Read a low CC50 as harm at low concentration. Broadly, the EC50 is the concentration that produces a half-maximal response. `O=C1Nc2ccccc2C(c2ccccc2)=NC1Nc1nnc(-c2ccc3ncsc3c2)o1` (stereo not shown) [Example 42] registered a CC50 at 5 days in series [1] greater than 50000 nM. For the same molecule, the EC50 in series [2] was in the range of 400 to 800 nM.

`O=C1Nc2ccccc2C(c2ccccc2)=NC1Nc1nnc(-c2ccc(-n3cccn3)cc2N2CCOCC2)o1` (stereo not shown) [Example 129]: the concentration giving a half-maximal response (EC50) in series [3] and in series [2] was less than 400 nM each time.

Turning to `O=C1Nc2ccccc2C(c2ccccc2)=N[C@@H]1Nc1nnc(-c2ccc(C(F)(F)F)nc2N2CC3CCC(C2)O3)o1` [Example 276], the EC50 in series [3] is greater than 800 nM; in series [2] it was 400 to 800 nM.

As for `Cc1ccc(-c2nnc(NC3N=C(c4ccccc4)c4ccccc4NC3=O)o2)c(N2CCOCC2)n1` (stereo not shown) [Example 144], the 50% effective concentration (EC50) in series [3] and in series [2] was less than 400 nM in each case.

For `N#CCCNc1cc(C(F)(F)F)cnc1-c1nnc(N[C@H]2N=C(c3ccccc3)c3ccccc3NC2=O)o1` [Example 303], the EC50 in series [3] and in series [2] was less than 400 nM in each case.

Turning to `Cn1c(N2CCOCC2)c(-c2nnc(N[C@H]3N=C(c4ccccc4)c4ccccc4NC3=O)o2)ccc1=O` [Example 155], the EC50 in series [3] and in series [2] was less than 400 nM in each case.

For `O=C1Nc2ccccc2C(c2ccccc2)=NC1Nc1ccc(-c2ccccc2)nn1` (stereo not shown) [Example 95], the values for the 50% effective concentration (EC50) in series [3] and in series [2] were greater than 800 nM and 400 to 800 nM, respectively.

For `O=C1Nc2c(F)cccc2C(c2ccccc2)=N[C@@H]1Nc1nnc(-c2ccccc2N2CCOCC2)o1` [Example 355a], the EC50 in series [3] and in series [2] was less than 400 nM throughout.

Regarding `Cc1nc(-c2nnc(N[C@H]3N=C(c4ccccc4)c4ccccc4NC3=O)o2)c(N2CCOCC2)s1` [Example 272], the EC50 in series [3] and in series [2] was less than 400 nM in each case.

In the case of `C[C@@H]1CN(c2cc(C(F)(F)F)cnc2-c2nnc(N[C@H]3N=C(c4ccccc4)c4ccccc4NC3=O)o2)CCO1` [Example 277], the 50% effective concentration (EC50) in series [3] and in series [2] was less than 400 nM in each case.

In the case of `O=C1Nc2ccccc2C(c2ccccc2)=NC1Nc1nnc(-c2ccc(C(F)(F)F)cc2N2CCOCC2)o1` (stereo not shown) [Example 123], the values for the EC50 in series [3] and in series [2] were 400 to 800 nM and less than 400 nM, respectively.

As for `O=C1Nc2ccccc2C(c2ccccc2)=N[C@@H]1Nc1nnc(-c2ccc(F)cc2)o1` [Example 7a], the concentration for a half-maximal effect (EC50) in series [3] was greater than 800 nM; in series [2] it was 400 to 800 nM. In series [4], this molecule came in with a cytotoxic concentration (CC50) greater than 50000 nM.

Turning to `N#Cc1cc(-c2nnc(N[C@H]3N=C(c4ccccc4)c4ccccc4NC3=O)o2)c(N2CCOCC2)nc1C1CC1` [Example 175], the results for the EC50 in series [3] and in series [2] were 400 to 800 nM and less than 400 nM, respectively.

As for `COCCOc1cc(C#N)ccc1-c1nnc(N[C@H]2N=C(c3ccccc3)c3ccccc3NC2=O)o1` [Example 300], the EC50 in series [3] and in series [2] was less than 400 nM each time.

Regarding `C[C@H]1CN(c2ncccc2-c2nnc(NC3N=C(c4ccccc4)c4ccccc4NC3=O)o2)CCO1` (stereo partly shown) [Example 263], the half-maximal effective concentration (EC50) in series [3] and in series [2] was 400 to 800 nM each time.

Take `O=C1Nc2ccccc2C(c2ccccc2)=N[C@@H]1Nc1nnc(-c2ncsc2N2CCOCC2)o1` [Example 336]: the concentration for a half-maximal effect (EC50) in series [3] and in series [2] was less than 400 nM throughout.

As for `O=C1Nc2ccccc2C(c2ccccc2)=N[C@@H]1Nc1nnc(-c2csc(N3CCOCC3)n2)o1` [Example 351], the EC50 in series [3] and in series [2] was 400 to 800 nM throughout.

Regarding `O=C1Nc2ccccc2C(c2ccccc2)=NC1Nc1nnc(-c2ccc(F)cc2N2CCOCC2)o1` (stereo not shown) [Example 127], the half-maximal effective concentration (EC50) in series [3] and in series [2] was less than 400 nM in each case.

`O=C1Nc2ccccc2C(c2ccccc2)=N[C@@H]1Nc1nnc(-c2ncc(C(F)(F)F)cc2N2C3CCC2COC3)o1` [Example 250]: the 50% effective concentration (EC50) in series [3] and in series [2] was less than 400 nM in each case.

As for `O=C1Nc2ccccc2C(c2ccccc2)=NC1Nc1nnc(-c2ccc(-n3cccn3)cc2)[nH]1` (stereo not shown) [Example 364], the concentration giving a half-maximal response (EC50) in series [3] is 400 to 800 nM; in series [2], less than 400 nM.

As for `CN1CCN(c2ccccc2-c2nnc(NC3N=C(c4ccccc4)c4ccccc4NC3=O)o2)CC1` (stereo not shown) [Example 224], the results for the 50% effective concentration (EC50) in series [3] and in series [2] were less than 400 nM and greater than 800 nM, respectively.

With `C[C@@H]1COCCN1c1ncccc1-c1nnc(NC2N=C(c3ccccc3)c3ccccc3NC2=O)o1` (stereo partly shown) [Example 245], the half-maximal effective concentration (EC50) in series [3] was 400 to 800 nM; in series [2], less than 400 nM.

For `O=C1Nc2ccccc2C(c2ccccc2)=N[C@@H]1Nc1nnc(-c2ncc(Br)cc2N2CCOCC2)o1` [Example 168], the EC50 in series [3] and in series [2] was less than 400 nM throughout.

In the case of `O=C1Nc2ccccc2C(c2ccccc2)=N[C@@H]1Nc1nnc(-c2nc(-c3ccncc3)sc2N2CCOCC2)o1` [Example 429], the concentration giving a half-maximal response (EC50) in series [3] and in series [2] was less than 400 nM throughout.
